Measured values as given in BindingDB's records for patent WO2025064535 (Deep Apple Therapeutics, 2025).

Biological target: T1, Mas-related G-protein coupled receptor member X2 (Homo sapiens, UniProt Q96LB1)
T1 sequence (Q96LB1 whole entry): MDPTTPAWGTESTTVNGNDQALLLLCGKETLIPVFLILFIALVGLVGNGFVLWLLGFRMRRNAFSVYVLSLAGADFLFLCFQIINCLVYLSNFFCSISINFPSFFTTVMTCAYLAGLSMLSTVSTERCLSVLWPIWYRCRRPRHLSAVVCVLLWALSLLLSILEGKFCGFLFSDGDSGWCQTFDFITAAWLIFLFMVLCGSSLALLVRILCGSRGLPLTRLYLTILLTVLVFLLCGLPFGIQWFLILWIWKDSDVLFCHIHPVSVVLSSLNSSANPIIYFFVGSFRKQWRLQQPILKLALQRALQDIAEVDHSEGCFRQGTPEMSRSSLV
Assay: MRGPRX2 Activity Assay
Experimental: FlpIn TRex-MRGPRX2-HEK293 cells (herein TRex-MRPGRX2-HEK) stably transfected to express human MRGPRX2 were maintained at 37 °C with 5% CO2 and grown in DMEM supplemented with 10% FBS, 1% L-Glutamate, 1% penicillin/streptomycin, 100ug/mL Hygromycin B, and 15 µg/mL Blasticidin. GOI (MRGPRX2) expression was induced with 100ng/mL of Doxycycline 18-24 hours prior to experiment, in flask. On the day of experiment, cells were lifted with TripLE Express and seeded in 384-well white walled opaque bottomed, assay plates, at 8,000 cells per well in 5 µL freshly made assay buffer (HBSS, 20 mM HEPES, 0.1% BSA and 10 mM LiCl). Compounds solubilized in 100% DMSO at 30 mM were serially diluted (1:4) first in 100% DMSO, and an intermediate plate of assay buffer was used to establish a final top concentration of 30 µM (in assay plate). Final DMSO concentration was kept constant at 1% across assay plates. Cortistatin-14, at 30 mM stock concentration was solubilized in HBSS + 0.1% BSA, stored at -20°C in 5 µL aliquots and discarded after one freeze-thaw cycle. […] Antagonist equilibrium was established with 30 minutes preincubation, followed by no wash, direct addition, and stimulation of agonist for 1 hour at 37 °C / 5% CO2. IP-1 standards and HTRF detection reagents were added according to the IP-one Gq kit protocol purchased from CisBio (part number 62IPAPEJ). The plate was read on an EnVision XCite plate reader. The HTRF ratio was then calculated from raw data (channel1/channel2 ×10,000) and analyzed using either GraphPad Prism or a custom Python script to calculate IC50 using Log[Antagonist] vs. response (4 parameter) nonlinear regression.

Row | IC50 [µM] | Compound
1 | 0.222 | C[C@@H](C(=O)Nc1nc2cc3c(cc2s1)OC(F)(F)O3)N1CCC[C@H](c2cc[n+]([O-])cc2)C1 [WO2025064535, Compound 50]
2 | 9.01 | C[C@@H](C(=O)Nc1nc2cc3c(cc2s1)OC(F)(F)O3)N1CCC(F)(F)[C@H](c2c[nH]c(=O)c([C@H](N)C(F)F)c2)C1 [WO2025064535, Compound 23]
3 | 0.223 | C[C@@H](C(=O)Nc1nc2cc3c(cc2s1)OC(F)(F)O3)N1CC[C@H](F)[C@H](c2cc[n+]([O-])cc2)C1 [WO2025064535, Compound 39]
4 | > 30 | C[C@@H](C(=O)Nc1nc2cc3c(cc2s1)OC(F)(F)O3)N1CCC(F)(F)[C@@H](c2ccc(=O)[nH]c2)C1 [WO2025064535, Compound 31]
5 | > 30 | C[C@@H](C(=O)Nc1nc2cc3c(cc2s1)OC(F)(F)O3)N1CCC(F)(F)[C@@H](n2ccc(=O)[nH]c2=O)C1 [WO2025064535, Compound 62]
6 | 0.022 | C[C@@H](C(=O)Nc1nc2cc3c(cc2s1)OC(F)(F)O3)N1CCC(F)(F)[C@H](c2c[nH]c(=O)c([C@H](O)CO)c2)C1 [WO2025064535, Compound 45]
7 | 0.169 | C[C@@H](C(=O)Nc1nc2cc3c(cc2s1)OC(F)(F)O3)N1CCC(F)(F)[C@H](c2c[nH]c(=O)c(CN3CCC(F)(F)CC3)c2)C1 [WO2025064535, Compound 69]
8 | > 30 | C[C@@H](C(=O)Nc1nc2cc3c(cc2s1)OC(F)(F)O3)N1CCC(F)(F)[C@@H](c2cc[n+]([O-])c([C@@H](O)CO)c2)C1 [WO2025064535, Compound 51]
9 | 0.017 | C[C@@H](C(=O)Nc1nc2cc3c(cc2s1)OC(F)(F)O3)N1CCC(F)(F)[C@@H](c2c[nH]c(=O)c([C@@H](N)C(F)F)c2)C1 [WO2025064535, Compound 22]
10 | > 30 | C[C@@H](C(=O)Nc1nc2cc3c(cc2s1)OC(F)(F)O3)N1CCO[C@H](c2ccc(=O)[nH]c2)C1 [WO2025064535, Compound 4]
11 | > 30 | C[C@@H](C(=O)Nc1nc2cc3c(cc2s1)OC(F)(F)O3)N1CC[C@@H](F)[C@@H](c2cc[n+]([O-])cc2)C1 [WO2025064535, Compound 36]
12 | > 30 | C[C@@H](C(=O)Nc1nc2cc3c(cc2s1)OC(F)(F)O3)N1CCC(F)(F)[C@@H](c2cc[n+]([O-])c(CN)c2)C1 [WO2025064535, Compound 64]
13 | > 30 | C[C@@H](C(=O)Nc1nc2cc3c(cc2s1)OC(F)(F)O3)N1CCC(F)(F)[C@@H](c2c[nH]c(=O)c([C@@H](O)CO)c2)C1 [WO2025064535, Compound 42]
14 | 0.03 | C[C@@H](C(=O)Nc1nc2cc3c(cc2s1)OC(F)(F)O3)N1CCC(F)(F)[C@@H](c2cc[n+]([O-])c([C@H](O)CO)c2)C1 [WO2025064535, Compound 53]
15 | 0.049 | C[C@@H](C(=O)Nc1nc2cc3c(cc2s1)OC(F)(F)O3)N1CCO[C@@H](c2ccc(=O)[nH]c2)C1 [WO2025064535, Compound 3]
16 | > 30 | C[C@@H](C(=O)Nc1nc2cc3c(cc2s1)OC(F)(F)O3)N1CCC(F)(F)[C@H](c2c[nH]c(=O)c([C@@H](N)C(F)F)c2)C1 [WO2025064535, Compound 24]
17 | 1.07 | C[C@@H](C(=O)Nc1nc2cc3c(cc2s1)OCCO3)N1CCC(F)(F)[C@H](c2ccc(=O)[nH]c2)C1 [WO2025064535, Compound 30]
18 | 3.43 | CNCc1cc([C@H]2CN([C@@H](C)C(=O)Nc3nc4cc5c(cc4s3)OC(F)(F)O5)CCC2(F)F)cc[n+]1[O-] [WO2025064535, Compound 101]

The next lines start with the molecule.

Row | Compound | IC50 [µM]
19 | C[C@@H](C(=O)Nc1nc2cc3c(cc2s1)OC(F)(F)O3)N1CCC[C@@H](CO)C1 [WO2025064535, Compound 7] | 1.13
20 | C[C@@H](C(=O)Nc1nc2cc3c(cc2s1)OC(F)(F)O3)N1CCC(F)(F)[C@@H](c2c[nH]c(=O)c([C@H](N)C(F)F)c2)C1 [WO2025064535, Compound 21] | 0.018
21 | C[C@@H](C(=O)Nc1nc2cc3c(cc2s1)OC(F)(F)O3)N1CCC(F)(F)[C@H](c2c[nH]c(=O)cn2)C1 [WO2025064535, Compound 35] | 1.02
22 | C[C@@H](C(=O)Nc1nc2cc3c(cc2s1)OC(F)(F)O3)N1CCC(F)(F)[C@@H](c2c[nH]c(=O)c(CN3CCC(F)(F)CC3)c2)C1 [WO2025064535, Compound 68] | > 30
23 | C[C@@H](C(=O)Nc1nc2cc3c(cc2s1)OC(F)(F)O3)N1CC[C@@H](F)[C@H](c2cc[n+]([O-])cc2)C1 [WO2025064535, Compound 37] | > 30
24 | C[C@@H](C(=O)Nc1nc2cc3c(cc2s1)OC(F)(F)O3)N1CCC(F)(F)[C@@H](c2c[nH]c(=O)c(CN3CCOCC3)c2)C1 [WO2025064535, Compound 66] | > 30
25 | C[C@@H](C(=O)Nc1nc2cc3c(cc2s1)OC(F)(F)O3)N1CCC(F)(F)[C@@H](c2ncn[nH]2)C1 [WO2025064535, Compound 104] | 0.031
26 | C[C@@H](C(=O)Nc1nc2cc3c(cc2s1)OCCO3)N1CCC(F)(F)[C@@H](c2c[nH]c(=O)cn2)C1 [WO2025064535, Compound 40] | 0.77
27 | C[C@@H](C(=O)Nc1nc2cc3c(cc2s1)CCC3)N1CCC(F)(F)[C@@H](c2ccc(=O)[nH]c2)C1 [WO2025064535, Compound 27] | 0.292
28 | C[C@@H](C(=O)Nc1nc2cc3c(cc2s1)OC(F)(F)O3)N1CCC(F)(F)[C@H](c2ncn[nH]2)C1 [WO2025064535, Compound 105] | 0.509
29 | C[C@H](C(=O)Nc1nc2cc3c(cc2s1)OC(F)(F)O3)N1CCC(F)(F)[C@@H](c2c[nH]c(=O)c(CN)c2)C1 [WO2025064535, Compound 84] | 1.16
30 | C[C@@H](C(=O)Nc1cc2cc3c(cc2s1)OC(F)(F)O3)N1CCC(F)(F)[C@@H](c2c[nH]c(=O)c([C@H](N)C(F)(F)F)c2)C1 [WO2025064535, Compound 14] | 12.8
31 | C[C@@H](C(=O)Nc1nc2cc3c(cc2s1)OC(F)(F)O3)N1CCC(F)(F)[C@@H](c2c[nH]c(=O)c([C@H](O)CO)c2)C1 [WO2025064535, Compound 44] | > 30
32 | C[C@@H](C(=O)Nc1nc2cc3c(cc2s1)OC(F)(F)O3)N1CCC(F)(F)[C@H](c2c[nH]c(=O)c(CN3CCOCC3)c2)C1 [WO2025064535, Compound 67] | 0.303
33 | C[C@@H](C(=O)Nc1nc2cc3c(cc2s1)OC(F)(F)O3)N1CCC(F)(F)[C@@H](c2c[nH]c(=O)c(CN)c2)C1 [WO2025064535, Compound 82] | 2.11
34 | C[C@@H](C(=O)Nc1nc2cc3c(cc2s1)OC(F)(F)O3)N1CCC(F)(F)[C@H](n2ccc(=O)[nH]c2=O)C1 [WO2025064535, Compound 63] | 0.635
35 | C[C@@H](C(=O)Nc1nc2cc3c(cc2s1)OC(F)(F)O3)N1CCC(F)(F)[C@H](c2cc[n+]([O-])c(CN)c2)C1 [WO2025064535, Compound 65] | 0.032
36 | C[C@@H](C(=O)Nc1nc2cc3c(cc2s1)CCC3)N1CCC(F)(F)[C@@H](c2c[nH]c(=O)c(CO)c2)C1 [WO2025064535, Compound 106] | > 30
37 | C[C@@H](C(=O)Nc1nc2cc3c(cc2s1)OC(F)(F)O3)N1CCC(F)(F)[C@H](c2cc[n+]([O-])c([C@@H](O)CO)c2)C1 [WO2025064535, Compound 52] | > 30
38 | C[C@@H](C(=O)Nc1nc2cc3c(cc2s1)OCO3)N1CCC(F)(F)[C@@H](c2cc[n+]([O-])cc2)C1 [WO2025064535, Compound 80] | 0.196
39 | C[C@@H](C(=O)Nc1nc2cc3c(cc2s1)CCC3)N1CCC(F)(F)CC1 [WO2025064535, Compound 18] | 0.085
40 | C[C@H](C(=O)Nc1nc2cc3c(cc2s1)OC(F)(F)O3)N1CCC(F)(F)[C@H](c2c[nH]c(=O)c(CN)c2)C1 [WO2025064535, Compound 83] | > 30
